PMC9945177, “Nature-Derived Epoxy Resin Monomers with Reduced Sensitizing Capacity—Isosorbide-Based Bis-Epoxides” (Chemical Research in Toxicology, 2023)

Experiments:
[1] = skin permeability, static Franz diffusion cells; format: in vitro ADME, pig
Protocol: For the permeability experiments, ultra-performance liquid chromatography-electrospray ionization tandem mass spectroscopy (UPLC)-ESI-MS/MS analysis was carried out using a Xevo TQ-S micro triple quadrupole mass spectrometer equipped with an electrospray interface and coupled to an Acquity UPLC H-Class Plus system from Waters. Separation was achieved on an ACE Excel C18-PFP column (75 × 2.1 mm, 1.7 μm) from Advanced Chromatography Technologies Ltd. (Aberdeen, Scotland). Mobile phase A consisted of 0.1% formic acid and 5% acetonitrile in water, whereas mobile phase B consisted of 0.1% formic acid and 5% water in acetonitrile. The gradient program used was as follows: 20% B (0–2 min), 20–80% B (2–9 min), 80–95% B (9–9.1 min), 95% B (9.1–12 min), 95–20% B (12–12.1 min), 20% B (12.1–15 min). The flow rate was set to 0.3 mL/min and the injection volume was 2 μL. Analysis was performed in positive ionization mode using a Multiple Reaction Monitoring (MRM) method. The optimal parameters were capillary voltage 1.5 (kV), desolvation temperature 650 °C, desolvation gas 850 L/h, and cone 100 L/h.
The Franz diffusion cell experiment was based on the OECD Test Guidelines.[35] Static Franz diffusion cells equipped with pig ex vivo epidermis were used to assess the permeability of isosorbide bis-epoxides 2 and 3. Freshly cut pig ears were received frozen and stored at −20 °C until used for permeability assessment. One day before the experiment, the ears were transferred at +4 °C and allowed to thaw. The ears were then washed, shaved, and carefully cut with a Watson Dermatome skin graft knife to obtain 0.1 mm pieces of the epidermis layer. The integrity of the skin (transparent and intact) was determined by ocular inspection. Thereafter, the epidermis layer was cut and positioned between the donor and receptor compartment of each Franz cell. The receptor compartments were filled with 5 mL of ethanol/PBS (1:1) and equipped with a small magnetic stir bar to ensure mixing while maintaining a constant temperature of the circulating water at 37 °C. To equilibrate the skin, the upper chamber was filled with 0.5 mL of ethanol/PBS (1:1) which was later removed and replaced with the donor solution (50 μL) containing either 2 or 3 (0.1 mg/mL) or DGEBA (0.1 mg/mL) used as a positive control. A procedural blank containing only 50 μL of ethanol/PBS (1:1) in the donor compartment was also included in the experimental setup. Samples of 100 μL were collected after 0–2 min, 1, 2, 3, 4, 5, and 6 h. At each timepoint, a sample aliquot was removed and 100 μL of ethanol/PBS (1:1) was added to the receptor compartment to keep the volume constant. After 6 h, the skin from each Franz cell was extracted overnight in 5 mL of ethanol/PBS (1,1). Triplicate experiments were performed for each compound. The obtained samples were analyzed with UPLC-ESI-MS/MS (see Figure S2 for parameters) and quantification was based on external calibration curves. The limit of quantification (LOQ) was determined by the analysis of the analyte at low concentration and was calculated as 10 times the signal-to-noise ratio.

Female CBA/Ca mice = conditions: cited from earlier work
[2] = parameters: method as in Ponting et al. 26; conditions: polymer, TGA under nitrogen; ref Ponting et al. 26; cited from earlier work
guinea pig = conditions: cited from earlier work
[3] = Extract: skin extracted overnight after 6 h

For `CC(C)(c1ccc(OCC2CO2)cc1)c1ccc(OCC2CO2)cc1` (stereo not drawn) [DGEBA, diglycidyl ether of bisphenol A, reference compound], the permeation of epidermis ([1]; 6 h experiment, donor 0.1 mg/mL) was “observed”, the “Average (µM)” value [1, 3] was 0.206 µM and the “Average (µg/ml)” value [1, 3] was 0.0700 µg/mL. The “Replicate 1” value [1, 3] was 0.0658 µg/mL, the “Replicate 2 (µg/ml)” value [1, 3] was “< LOQ” and the “Replicate 3” value [1, 3] was 0.0742 µg/mL. For the same compound, the recovery at 6 h, 0.1 mg/mL ([1]; pig, w/w %, sum of receptor compartment after 6 h and overnight skin extraction) was 35%, the “Average (µM)” value ([1]; receptor fluid, timepoint 0 h) was 0 µM and the “Average (µg/ml)” value ([1]; receptor fluid, timepoint 0 h) was 0 µg/mL. For the same compound, the “Replicate 1 (µg/ml)” value ([1]; receptor fluid, timepoint 0 h) was “< LOQ”, the “Replicate 2 (µg/ml)” value ([1]; receptor fluid, timepoint 0 h) was “< LOQ” and the “Replicate 3 (µg/ml)” value ([1]; receptor fluid, timepoint 0 h) was “< LOQ”. The “Average (µM)” value ([1]; receptor fluid, timepoint 1 h) was 0 µM, the “Average (µg/ml)” value ([1]; receptor fluid, timepoint 1 h) was 0 µg/mL and the “Replicate 1 (µg/ml)” value ([1]; receptor fluid, timepoint 1 h) was “< LOQ”. For the same compound, the “Replicate 2 (µg/ml)” value ([1]; receptor fluid, timepoint 1 h) was “< LOQ”, the “Replicate 3 (µg/ml)” value ([1]; receptor fluid, timepoint 1 h) was “< LOQ” and the “Average (µM)” value ([1]; receptor fluid, timepoint 2 h) was 0.595 µM. For the same compound, the “Average (µg/ml)” value ([1]; receptor fluid, timepoint 2 h) was 0.203 µg/mL, the “Replicate 1” value ([1]; receptor fluid, timepoint 2 h) was 0.315 µg/mL and the “Replicate 2” value ([1]; receptor fluid, timepoint 2 h) was 0.184 µg/mL. The “Replicate 3” value ([1]; receptor fluid, timepoint 2 h) was 0.108 µg/mL, the “Average (µM)” value ([1]; receptor fluid, timepoint 3 h) was 0.818 µM and the “Average (µg/ml)” value ([1]; receptor fluid, timepoint 3 h) was 0.278 µg/mL. The “Replicate 1” value ([1]; receptor fluid, timepoint 3 h) was 0.419 µg/mL, the “Replicate 2” value ([1]; receptor fluid, timepoint 3 h) was 0.239 µg/mL and the “Replicate 3” value ([1]; receptor fluid, timepoint 3 h) was 0.177 µg/mL. The “Average (µM)” value ([1]; receptor fluid, timepoint 4 h) was 0.868 µM, the “Average (µg/ml)” value ([1]; receptor fluid, timepoint 4 h) was 0.296 µg/mL and the “Replicate 1” value ([1]; receptor fluid, timepoint 4 h) was 0.456 µg/mL. For the same compound, the “Replicate 2” value ([1]; receptor fluid, timepoint 4 h) was 0.229 µg/mL, the “Replicate 3” value ([1]; receptor fluid, timepoint 4 h) was 0.202 µg/mL and the “Average (µM)” value ([1]; receptor fluid, timepoint 5 h) was 0.851 µM. For the same compound, the “Average (µg/ml)” value ([1]; receptor fluid, timepoint 5 h) was 0.290 µg/mL, the “Replicate 1” value ([1]; receptor fluid, timepoint 5 h) was 0.436 µg/mL and the “Replicate 2” value ([1]; receptor fluid, timepoint 5 h) was 0.237 µg/mL. The “Replicate 3” value ([1]; receptor fluid, timepoint 5 h) was 0.196 µg/mL, the “Average (µM)” value ([1]; receptor fluid, timepoint 6 h) was 0.817 µM and the “Average (µg/ml)” value ([1]; receptor fluid, timepoint 6 h) was 0.278 µg/mL. For the same compound, the “Replicate 1” value ([1]; receptor fluid, timepoint 6 h) was 0.406 µg/mL, the “Replicate 2” value ([1]; receptor fluid, timepoint 6 h) was 0.218 µg/mL and the “Replicate 3” value ([1]; receptor fluid, timepoint 6 h) was 0.210 µg/mL. The “amount in receptor fluid after 6 h (%)” value ([1]; w/w %) was 27.8 ± 9.0%, the “amount on/in skin (%)” value ([1]; w/w %, overnight skin extraction after 6 h) was 7.0 ± 0.4% and the “recovery (%)” value ([1]; w/w %, sum of receptor compartment after 6 h and overnight skin extraction) was 34.8 ± 9.4%. For the same compound, the EC3 (Female CBA/Ca mice) was 0.036 M, the “Ea (activation energy for the decomposition of the cured epoxy resins)” value [2] was 40.2 kcal/mol and the “IDT (initial decomposition temperature)” value [2] was 358 °C. For the same compound, the “Rmax (maximum weight loss rate)” value [2] was “–2.17 %/°C”, the “Tmax (temperature at the maximum rate of weight loss)” value [2] was 408 °C and the “skin sensitizer classification in guinea pig maximization test” value (guinea pig) was “strong”.
